Article PMC6172411, “Development of a Quantitative Assay for the Characterization of Human Collectin-11 (CL-11, CL-K1)” (Frontiers in Immunology, 2018)

Columns and labels:
[1] = molecular target: T1, rCL-11 (recombinant collectin-11, CL-11, CL-K1) (Homo sapiens, UniProt Q9BWP8); assay: solid-phase competition ELISA, inhibition of rCL-11 binding to coated mannan; conditions: Ca2+ (TBS-Tw-Ca, 2.5 mM CaCl2), rCL-11 1 ug/ml, mannan-coated plate, room temperature
T1 construct: gene COLEC11; no tag stated; homomeric disulfide-linked oligomers of trimers, monomer ~34 kDa reduced

[2] = molecular target: T1, rCL-11 (recombinant collectin-11, CL-11, CL-K1); assay: co-precipitation with D-mannose-agarose (western blot) and solid-phase binding to coated D-mannose-BSA; conditions: Ca2+ required (no binding in EDTA or Mg-EGTA); D-mannose presented as immobilised agarose or BSA conjugate; room temperature

T1 sequence (Q9BWP8 26-271): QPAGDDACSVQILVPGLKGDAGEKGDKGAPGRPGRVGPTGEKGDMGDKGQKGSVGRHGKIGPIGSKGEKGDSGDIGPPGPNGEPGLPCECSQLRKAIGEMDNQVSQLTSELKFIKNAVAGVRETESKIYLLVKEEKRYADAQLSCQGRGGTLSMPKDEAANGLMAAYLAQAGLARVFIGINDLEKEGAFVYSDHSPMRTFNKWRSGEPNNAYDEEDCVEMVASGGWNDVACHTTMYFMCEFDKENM

IC50 [1] | Structure (SMILES) | co-precipitation with D-mannose-agarose (western blot) and solid-phase binding t [2]
36.5 mM | C[C@@H]1OC(O)[C@@H](O)[C@H](O)[C@@H]1O (stereo partly drawn) [L-fucose] | –
– | OC[C@H]1OC(O)[C@@H](O)[C@@H](O)[C@@H]1O (stereo partly drawn) [D-mannose] | bound to D-mannose and mannan in the presence of calcium
